According to patent US9855209B1, “Anti-bacterial mouthwash” (KING ABDULAZIZ UNIVERSITY, priority 2017, dated 2018):

Test system: Salmonella enterica subsp. Enterica serovar Typhimurium (ATCC 29629, TA 1535)
Experiment: Ames test
Format: cell-based
Conditions: positive control
Source text: The Ames test was followed according to a previously reported procedure (Ames et al, 1973; Mortelmans and Zeiger, 2000). Briefly, the test organism Salmonella enterica subsp. Enterica serovar Typhimurium (ATCC® 29629-Strain Designations: TA 1535), an auxotrophic mutant, was provided by ATCC, Manassas, USA. This auxotrophic isolate requires histidine for its growth, due to a mutation in its DNA. Substances to be tested for their mutagenesis, could be added in the histidine-free medium of the test organism, to monitor their ability to reverse back the mutated Salmonella typhimurium to a prototrophic state, enabling it to grow. The anti-bacterial mouthwash was incorporated in the histidine-free medium used in the Ames test, at four different concentrations namely, 1/100×, 1×, 1.5×, and 2× (where X is the dilution used in mouth rinsing experiments), while another batch of the medium was deprived of the Mouthwash substance. Ethidium bromide, an expected positive inducer of mutations in the test organism, was incorporated in another batch of the same histidine-free medium at two concentrations namely, 20 and 200 nmole. The S. Typhimurium was cultured in triplicate onto the 4 differently supplemented media, and on the 5th control medium that was deprived of supplementation, to observe the growth of this test organism. The bacterium was spread over these media with small amounts of histidine that helps in the initiation of the growth, and once this amino acid is depleted, only the mutated cells by the supplemented substance will be able to synthesize their histidine, and to continue their growth. Thus, mutagenicity is determined in this research from the proportion of the average colony forming units formed on triplicate of the supplemented medium with the anti-bacterial mouthwash versus that formed on triplicate of the non-supplemented medium, with the growth on Ethidium bromide acting as a positive control of the test.
The results of the Ames test in relation to reversion of the S. Typhimurium test organism from its auxotrophic to prototrophic nature is shown in Table 4.

In the case of CC[n+]1c(-c2ccccc2)c2cc(N)ccc2c2ccc(N)cc21 [Ethidium bromide], the “Mean % increase in S. Typhimurium CFU count of triplicate relative to mean triplicate count on minimal Histidine-supplemented medium” value (20 nmol/plate) is reported as 0%, the “Mean % increase in S. Typhimurium CFU count of triplicate relative to mean triplicate count on minimal Histidine-supplemented medium” value (20 nmol/plate, listed as Eth) is reported as 0.0% and the “Mean % increase in S. Typhimurium CFU count of triplicate relative to mean triplicate count on minimal Histidine-supplemented medium” value (200 nmol/plate, apparent reversion of mutation (P<0.05)) is reported as 12.5%.
